Test results as given in patent US20250154525A1, “PLANT VIRUS MOVEMENT PROTEINS AND METHODS OF USING SAME” (Molecular Transfer, Inc., priority 2016, published 2025).

Assays:
HeLa Cells [1] = experiment: GFP transfection with DOTMA/SEQ ID NO: 72 (fusogenic peptide)/peptide compared with Lipofectamine 2000; assay type: cell-based
Experimental: (§1) Cells were plated to so that on the day of transfection the cells were 70% confluent in 96 well tissue culture plates. A DOMTA/DOPE Lipid solution (1:1 molar ratio) at 2 mg/mL in water were mixed with an equal volume cell surface ligand containing adhesion peptide, the plant virus movement protein, or peptide derived therefrom, that had the nucleic acid binding moiety RRRRRRRRRRRR (SEQ ID NO:109) or KKKKKKKKKKKKKKKK (SEQ ID NO: 102) covalently linked to the N-terminus, or C-terminus of each peptide during peptide synthesis. Peptides were at 2 mg/mL in water. The DOTMA/DOPE and the solution containing the cell surface ligand containing adhesion peptide, the plant virus movement protein, or peptide derived therefrom, surface ligand peptide the was diluted 1 to 1 (v/v) in water. DOMTA/DOPE/PEPTIDE solutions were added to 0.1 mL of a plasmid DNA solution (EF1Alpha eGFP plasmid) at 10 μg/mL in OptiMEM.
(§2) All solutions were at room temperature. A volume of 0.2 mL of a 10 μg/mL solution of DNA was aliquoted into each well of a non-tissue cultured treated plate. 1-12 μL of transfection reagents were added to DNA solutions respectively. The transfection reagent and DNA solution was mixed by pipetting up and down twice. Transfection complexes were formed for 10 minutes. After 10 minutes, 0.01 or 0.02 mL of the transfection complex was added to cells. HuVEC, HeLa, human adult keratinocytes, human primary adult fibroblast, and A549 cells all respectively received 0.01 mL of the transfection complex. Human skeletal muscle cells, mouse C2C12 cells, and Jurkat, cells received 0.02 mL of the transfection complex. Cells were incubated for 42 hours at 37° C. at 5% CO2. Plates were read on a fluorescent plate reader. Cells were also examined visually under a microscope to assess the extent of transfection (in terms of the percent of cells transfected) with a fluorescent microscope. Other modes of analysis, for example quantification with B-galactocidase or luciferase reports plasmids can also be used.
The fusogenic peptide was added to the DOMTA/peptide formulation to achieve a final concentration of 0.1 mg/mL to see if transfection reagents were further enhanced by the addition of a fusogenic peptide and could provide higher transfection efficiency into HeLa cells and expression than the commercially available Lipofectamine 2000.

C2C12 Cells = experiment: GFP plasmid transfection with DOTMA/DOPE plus surface ligand peptide, fluorescent plate reader (Example 1); assay type: cell-based, mouse; details: DOTMA/DOPE + peptide linked to R12 or K16; EF1Alpha eGFP plasmid; 42 hours
Experimental: as §1, §2
(§3) Surface ligand that caused increase expression of GFP over the lipid DOTMA with no surface ligand were considered to enhance transfection or had higher % cells transfected were considered to enhance transfection. Peptides that gave greater than 2-fold enhancement are noted in bold and could be further optimized by adding different transfection enhancers or could be used with different cationic lipids or polymers.
(§4) Tables 2-7, below, provide the results of the transfection enhancements with the various cell types, while Table 8 lists the peptides that were determined by visual inspection to enhance the transfection of the denoted cell lines over the lipid DOTMA.

some examined cell types = experiment: Summary of Example 1: transfection expression and % cells transfected over the no peptide control; assay type: cell-based; details: on some examined cell types
Experimental: as §1, §2, §3

HuVec Cells = experiment: GFP plasmid transfection with DOTMA/DOPE plus surface ligand peptide, fluorescent plate reader (Example 1); assay type: cell-based; details: DOTMA/DOPE + peptide linked to R12 or K16; EF1Alpha eGFP plasmid; 42 hours
Experimental: as §1, §2, §3, §4

Human Fibroblast Cells = experiment: as above; assay type: cell-based; details: DOTMA/DOPE + peptide linked to R12 or K16; EF1Alpha eGFP plasmid; 42 hours
Experimental: as §1, §2, §3, §4

Jurkat Cells = experiment: as above; assay type: cell-based; details: DOTMA/DOPE + peptide linked to R12 or K16; EF1Alpha eGFP plasmid; 42 hours
Experimental: as §1, §2, §3, §4

NL-1 iPS Cells = experiment: as above; assay type: cell-based; details: DOTMA/DOPE + peptide linked to R12 or K16; EF1Alpha eGFP plasmid; 42 hours
Experimental: as §1, §2, §3, §4

HeLa Cells [2] = experiment: as above; assay type: cell-based; details: DOTMA/DOPE + peptide linked to R12 or K16; EF1Alpha eGFP plasmid; 42 hours
Experimental: as §1, §2, §3, §4

[3] = 0.1 μL of DOTMA/SEQ ID NO: 72/Peptide in well of a 96 well plate
[4] = 0.2 μL of DOTMA/SEQ ID NO: 72/Peptide in well of a 96 well plate
[5] = 0.3 μL of DOTMA/SEQ ID NO: 72/Peptide in well of a 96 well plate
[6] = 0.4 μL of DOTMA/SEQ ID NO: 72/Peptide in well of a 96 well plate

Row | Substance | Relative Fluorescence DOTMA/SEQ ID NO: 72/Peptide, HeLa Cells (RF) (HeLa Cells [1]; [3]) | Relative Fluorescence DOTMA/SEQ ID NO: 72/Peptide, HeLa Cells (RF) (HeLa Cells [1]; [4]) | Relative Fluorescence DOTMA/SEQ ID NO: 72/Peptide, HeLa Cells (RF) (HeLa Cells [1]; [5]) | Relative Fluorescence DOTMA/SEQ ID NO: 72/Peptide, HeLa Cells (RF) (HeLa Cells [1]; [6]) | Relative Fluorescence of Transfection of C2C12 Cells (RF) (C2C12 Cells) | transfection expression and % cells transfected over the no peptide control (some examined cell types) | Relative Fluorescence of Transfection of HuVec Cells (RF) (HuVec Cells) | Relative Fluorescence of Transfection of Human Fibroblast Cells (RF) (Human Fibroblast Cells) | Relative Fluorescence of Transfection of Jurkat Cells (RF) (Jurkat Cells) | Relative Fluorescence of Transfection of NL-1 iPS Cells (RF) (NL-1 iPS Cells) | Relative Fluorescence of Transfection of HeLa Cells (RF) (HeLa Cells [2])
1 | 355 (FRHRNRKGY) [compound 355] | 18362 | 27990 | 22367 | 18289 | 1900 | increased transfection expression and the % cells transfected | 14810 | 6821 | 8132 | 7910 | 32628
2 | 342 (TAGSCLRKFSTM) [compound 342] | 41299 | 36040 | 28841 | 18351 | 9496 | increased transfection expression and the % cells transfected | 12804 | 9525 | 12825 | 11493 | 33666
3 | 381 (TAGSCL) [compound 381] | 34187 | 37463 | 27007 | 20088 | 8834 | increased transfection expression and the % cells transfected | 17542 | 9953 | 10806 | 9644 | 22652
4 | 219 (RKRLQVQLSIRT) [compound 219] | 12135 | 13841 | 13531 | 11712 | 1346 | increased transfection expression and the % cells transfected | 6237 | 7389 | 10762 | 5770 | 13721
5 | 369 (TAIPSCPEGTVPLYS) [compound 369] | 8737 | 16706 | 14880 | 12645 | 3322 | increased transfection expression and the % cells transfected | 6536 | 7590 | 11085 | 13124 | 14444
6 | 336 (GEFYFDLRLKGDK) [compound 336] | 14442 | 16702 | 13434 | 11334 | 9647 | increased transfection expression and the % cells transfected | 5366 | 10449 | 4813 | 14875 | 25262
7 | 341 (LRAHAVDVNG) [compound 341] | 6406 | 7469 | 8020 | 7546 | 2141 | increased transfection expression and the % cells transfected | 15906 | 2284 | 18042 | 20446 | 4108
8 | 454 (TGLSCLQRFTTM) [compound 454] | 34033 | 37099 | 27412 | 16023 | 9280 | increased transfection expression and the % cells transfected | 13336 | 7568 | 8224 | 18100 | 34550
9 | 358 (GHRGPTGRPGKRGKQGQKGDS) [compound 358] | 12331 | 12683 | 13686 | 11097 | 2271 | increased transfection expression and the % cells transfected | 25398 | 5665 | 18820 | 21956 | 15132
10 | 450 (TAGSCLRKFSCL) [compound 450] | 11962 | 17346 | 12553 | 10241 | 3795 | increased transfection expression and the % cells transfected | 20911 | 6996 | 8779 | 29856 | 21045
11 | 351 (LNRQELFPFG) [compound 351] | 7678 | 11499 | 10575 | 8791 | 3530 | increased transfection expression and the % cells transfected | 15379 | 8061 | 9730 | 24646 | 12279
